Experimental data reported in US7408022B2, “Composition and method for increasing apoptosis in cancer cells” (Celtek Bioscience, LLC, priority 2004, dated 2008).
Peptide text beside a SMILES is read from it.

Tests used:
PC3 cells = assay: In vitro cytotoxicity assay (MTS); assay type: cell-based, Human; conditions: PC3, 30 μM, 24 h
Description: (§1) LNCaP, DU145, PC3, or neuroblastoma N2a cells were grown in 96-well plates to a confluence of 60%. The treatments with different concentrations of peptide were performs in quadruplicates in a total volume of 100 μl in RPMI without serum for 24 h at 37° C. The cells were then washed and incubated at 37° C. with 100 μl phenol-red free RPMI containing 20 μl of the CellTiter 96 AQueous Solution reagent (Promega, Madison, Wis.) for 1 h. The absorbency in each well was recorded at 490 nm using a Microplate Autoreader EL 309 (Bio-Tek Instruments, Winooski, Vt.). The absorbency reflects directly the number of viable cells. Blanks were subtracted from all data. The data were then analyzed using Prism software (GraphPad Software Inc., San Diego, Calif.) and expressed as a mean ±SE of three independent experiments. Statistical significance was performed by one way ANOVA and consider significant if p<0.05.

LNCaP cells = assay: In vitro cytotoxicity assay (MTS); assay type: cell-based, Human; conditions: 24 h at 37° C.
Description: as §1

DU145 cells [1] = assay: In vitro cytotoxicity assay (MTS); assay type: cell-based, Human; conditions: DU145, 30 μM, 24 h
Description: as §1

[2] = Quantitative indirect immunofluorescence assay of peptide cellular import (96-well plates); assay type: cell-based; conditions: from time-dependent fluorescence accumulation, 1-20 h
Excerpt: This indirect immunofluoresence assay was also utilized to quantitate peptide cellular import. Briefly, cells grown in 96-well plates will be treated with peptides for different time periods, and then subjected to an indirect immunofluorescence assay using anti-peptide antibody and FITC-labeled anti-rabbit antibody as described above. Cells were then lysed with 10% SDS and the fluorescence in the soluble cell solutions was quantified by a Cytofluor™ 2300 reader (Millipore) at 485/560 nm. The fluorescence readings were calculated by subtracting […] of peptide-untreated sample. The data were expressed as mean ±SEM of three independent experiments performed in quintuplicate samples. The kinetics of imported CB5005 peptide (SEQ ID NO: 4) was studied by using this quantitative.

neuroblastoma N2a cells = assay: In vitro cytotoxicity assay (MTS); assay type: cell-based; conditions: 24 h at 37° C.
Description: as §1

DU145 cells [3] = assay: Flow cytometric analysis of annexin V/PI stained cells; assay type: cell-based, Human; conditions: for induction of apoptosis by co-treatment with cisplatin (flow cytometry): CB5005 30 μM, CB5003 72 μM, CB5002 72 μM, cisplatin 5 μg/ml
Description: PCA cells were grown on 60-mm dishes to a confluence of 50-60%. These cells were incubated with different concentrations of peptides for 30 min at 37° C. followed by the treatment with TNF-α (10 ng/ml), cisplatin (2-30 μg/ml), etoposide (2-20 μg/ml) or diluent for an additional 21 h at 37° C. Phosphatidylserine exposure on apoptotic cells was measured by their ability to bind Annexin V. Specifically, cells were harvested by trypsinization. The trypsinized cells, media and PBS washes were combined and cells collected by centrifugation. […] Stained cells were analyzed by flow cytometry. A minimum 20,000 events for each sample was measured.

[4] = tested on: NF-κB nuclear translocation in LNCaP cells; assay: Western blot analysis of NF-κB p50 protein in nuclear extracts; assay type: cell-based, Human; conditions: peptide 30 min, then TNF-α 10 ng/ml 1 h
Description: (§2) PCA cells were grown on 60-mm dishes to a confluence of 70-80%. The cells were incubated with different concentrations of peptides for 30 min at 37° C., followed by treatment with TNF-α (10 ng/ml) for an additional 1 h at 37° C., as indicated, or incubated with peptide alone for 16 hours. After the treatment, cells were washed with ice-cold PBS and lysed in 500 μl of buffer A (10 mM HEPES, pH 7.9, 10 mM KCl, 0.1 mM EDTA, 0.1 mM EGTA, 0.4% Nonidet P-40, 1 mM DTT, 0.5 mM PMSF and 1 μg/ml each of leupeptin, aprotinin, pepstatin, chymostatin and antipain) on ice for 10 min. Nuclei were pelleted by centrifugation at high speed and washed with 500 μl of buffer A. Nuclei were then resuspended in 40 μl of buffer B (20 mM HEPES, pH 7.9, 400 mM NaCl, 1 mM EDTA, 1 mM EGTA, 1 mM DTT, 1 mM PMSF and 1 μg/ml each of leupeptin, aprotinin, pepstatin, chymostatin and antipain). The protein concentration of nuclear extract was determined using Pierce BCA protein assay and equalized among samples using buffer B.
(§3) Equal amounts of proteins were heat-treated in 2×SDS sample loading buffer at 100° C. for 5 minutes and fractionated by 10% SDS polyacrylamide electrophoresis. The proteins were transferred to nitrocellulose paper. After blocking with 5% nonfat milk in TBS (10 mM Tris-HCl, pH 7.6, 70 mM NaCl and 0.05% Tween 20) for 30 minutes, nuclear NFκB p50 was detected by using an anti-p50 IgG antibody (1:5000), (Upstate, Lake Placid, N.Y.). The primary antibody was visualized with horseradish peroxidase-coupled secondary antibody by using ECL western blotting system as described in manufacturer's protocol (Pierce, Rockford, Ill.).

[5] = tested on: NF-κB nuclear translocation in DU145 cells; assay: as above; assay type: cell-based, Human; conditions: CB5005 30 μM, CB5003 90 μM, CB5007 30 μM for 30 min, then TNF-α 10 ng/ml 1 h
Description: as §2, §3

DU145 cells [6] = assay: Indirect immunofluorescence assay for peptide cellular import; assay type: cell-based, Human; conditions: different concentrations of peptides, 1 h at 37° C.
Description: DU145 cells were grown on 8-well chamber slides (Nunc, Naperville, Ill.) to a confluence of 80%. These cells were then incubated with diluent or different concentrations of peptides in RPMI without serum for 1 h at 37° C. The cells were washed three times with cold PBS to remove the extracellular peptides and then fixed with 3.5% paraformaldehyde solution in PBS at 4° C. for 20 min. The fixed cells were washed three times with cold PBS and treated with 0.25% Triton X-100 for 10 min. The washed cells were then incubated with anti-peptide IgG in PBS for 1 h. After three 5 min washings with PBS, the intracellular peptides (via peptide-antibody complexes) were subsequently detected with FITC-labeled goat anti-rabbit IgG (Pierce, Rockford, Ill.) after 1 h incubation. Cover slips with stained cells were mounted in Poly/Mount (Polysciences, Warrington, Pa.) and analyzed with Microstar IV (Reichard, Buffalo, N.Y.) using a 100× oil immersion lens. The color images were analyzed using a Pixera digital camera and stored in JPG format. The same assay was also utilized for determining peptide cellular import in other cell lines, including PC3, LNCaP, and neuroblastoma N2a cells.

DU145 cells [7] = assay: TUNEL assay; assay type: cell-based, Human; conditions: peptide 30 min, then cisplatin 5 μg/ml 16 h; CB5003 40 μM, CB5002 72 μM, CB5007 30 μM
Description: DU145 cells were grown on 8-well chamber slides to a confluence of 70-80%. The cells were then incubated with different concentrations of peptides or diluent for 30 min at 37° C. followed by the treatment with cisplatin (5 μg/ml) or diluent for an additional 16 h. The cells were air-dried and fixed in 4% paraformaldehyde at room temperature for 1 h. The cells were then washed with PBS and permeabilized with permeabilization solution (0.1% Triton X-100 in 0.1% sodium citrate) for 2 min on ice. Apoptosis was detected using TUNEL method “in situ cell death detection POD” according to the manufacturer's instructions (Roche, Indianapolis, Ind.). The fluorescein-labeled DNA strand breaks due to apoptosis were visualized under light microscope (Microstar IV, Reichard, Buffalo, N.Y.) by using anti-fluorescein antibody conjugated POD (peroxidase) at ×40 magnification. The images were analyzed using a Pixera digital camera.

DU145 cells [8] = assay: Annexin V/PI fluorescence microscopy apoptosis assay; assay type: cell-based, Human; conditions: cisplatin 5 μg/ml alone, 5 h
Description: DU145 cells were grown on 4-well chamber slides to a confluence of 70-80%. Cells were then treated with CB5005 peptide (SEQ ID NO: 4) (30 μM) or diluent for 30 min at 37° C. followed by cisplatin (5 μg/ml) for an additional 5 h. […] The chamber slides were mounted in Poly/mount (Polysciences, Warrington, Pa.) and analyzed with a fluorescence microscope (Microstar IV, Reichard, Buffalo, N.Y.) using ×100 oil immersion lens. The color images were analyzed by a Pixera digital camera and stored in JPG format.

Compound	induction of apoptosis by co-treatment with cisplatin (flow cytometry) (DU145 cells [3]; 21 h)	TNF-α-induced NF-κB nuclear translocation [4]	TNF-α-induced NF-κB nuclear translocation [5]	cellular import activity (DU145 cells [6])	sensitizing activity to cisplatin-induced apoptosis (TUNEL) (DU145 cells [7])	further results
CSCC[C@H](NC(=O)[C@H](CC(C)C)NC(=O)[C@H](CCCCN)NC(=O)[C@H](CCC(N)=O)NC(=O)[C@H](CCCNC(=N)N)NC(=O)[C@H](CCCCN)NC(=O)[C@H](CCCNC(=N)N)NC(=O)[C@H](CCC(N)=O)NC(=O)[C@@H](NC(=O)[C@H](C)NC(=O)[C@H](CC(C)C)NC(=O)[C@H](C)NC(=O)[C@H](CC(C)C)NC(=O)[C@H](C)NC(=O)[C@H](CC(C)C)NC(=O)[C@H](C)NC(=O)[C@H](CC(C)C)NC(=O)[C@H](CCCCN)NC(=O)[C@H](CC(C)C)NC(=O)[C@@H](N)CCCCN)C(C)C)C(=O)N1CCC[C@H]1C(=O)O [CB5005] (H-KLKLALALALAVQRKRQKLMP-OH; N-terminus and C-terminus assumed)						cytotoxicity (MTS), peptide-untreated vs treated samples (PC3 cells): Statistical significance (p<0.05); cytotoxicity (MTS) (LNCaP cells): not toxic; cytotoxicity (MTS), peptide-untreated vs treated samples (DU145 cells [1]): Statistical significance (p<0.05); stability in intracellular compartments [2]: relatively stability; cytotoxicity (MTS) (neuroblastoma N2a cells): did not result in toxicity
CB5003: analogous peptide possessing only a portion of the CPS (SEQ ID NO: 1) N-terminal to the NF-κB p50 NLS (LALALAVQRKRQKLMP)	active but to a much less extent	inhibited	inhibited	much weaker import activity	active, although at a much lower level	synergistic activity in enhancing the apoptosis induced by cisplatin (dependence on concentration) (DU145 cells [3]; DU145, flow cytometry): concentration-dependent
CB5007: control peptide corresponding to CB5005 except that two basic residues in the NF-kB p50 NLS are mutated (KR-NG) (KLKLALALALAVQRNGQKLMP)		did not have an inhibitory effect	did not have an inhibitory effect		not	
CB5002: control peptide with a mutant, non-functional CPS located N-terminal to the NLS (LALLAPVQRKRQKLMP)	did not show significant effect			not active	not	
N.N.[Cl][Pt][Cl] [cisplatin, reference compound]						induction of apoptosis (flow cytometry) (DU145 cells [3]; cisplatin 5 μg/ml alone, 21 h): ineffective; induction of apoptosis (annexin V-FITC staining) (DU145 cells [8]): ineffective
